From ChEMBL document CHEMBL5257108, “Phthalazinone-based lactams and cyclic ureas as ROCK2 selective inhibitors” (Bioorg Med Chem Lett, 2023) come the findings set out here.

pIC50: −log10 of the molar value. Some results are limits rather than exact numbers.

The target in experiment [1] is Rho-associated protein kinase 1 (Homo sapiens, UniProt Q13464). Briefly: Inhibition of ROCK1 (unknown origin).
The target in experiment [2] is Rho-associated protein kinase 2 (Homo sapiens, UniProt O75116). Briefly: Inhibition of ROCK2 (unknown origin).
Chain of Rho-associated protein kinase 2 (O75116 whole entry): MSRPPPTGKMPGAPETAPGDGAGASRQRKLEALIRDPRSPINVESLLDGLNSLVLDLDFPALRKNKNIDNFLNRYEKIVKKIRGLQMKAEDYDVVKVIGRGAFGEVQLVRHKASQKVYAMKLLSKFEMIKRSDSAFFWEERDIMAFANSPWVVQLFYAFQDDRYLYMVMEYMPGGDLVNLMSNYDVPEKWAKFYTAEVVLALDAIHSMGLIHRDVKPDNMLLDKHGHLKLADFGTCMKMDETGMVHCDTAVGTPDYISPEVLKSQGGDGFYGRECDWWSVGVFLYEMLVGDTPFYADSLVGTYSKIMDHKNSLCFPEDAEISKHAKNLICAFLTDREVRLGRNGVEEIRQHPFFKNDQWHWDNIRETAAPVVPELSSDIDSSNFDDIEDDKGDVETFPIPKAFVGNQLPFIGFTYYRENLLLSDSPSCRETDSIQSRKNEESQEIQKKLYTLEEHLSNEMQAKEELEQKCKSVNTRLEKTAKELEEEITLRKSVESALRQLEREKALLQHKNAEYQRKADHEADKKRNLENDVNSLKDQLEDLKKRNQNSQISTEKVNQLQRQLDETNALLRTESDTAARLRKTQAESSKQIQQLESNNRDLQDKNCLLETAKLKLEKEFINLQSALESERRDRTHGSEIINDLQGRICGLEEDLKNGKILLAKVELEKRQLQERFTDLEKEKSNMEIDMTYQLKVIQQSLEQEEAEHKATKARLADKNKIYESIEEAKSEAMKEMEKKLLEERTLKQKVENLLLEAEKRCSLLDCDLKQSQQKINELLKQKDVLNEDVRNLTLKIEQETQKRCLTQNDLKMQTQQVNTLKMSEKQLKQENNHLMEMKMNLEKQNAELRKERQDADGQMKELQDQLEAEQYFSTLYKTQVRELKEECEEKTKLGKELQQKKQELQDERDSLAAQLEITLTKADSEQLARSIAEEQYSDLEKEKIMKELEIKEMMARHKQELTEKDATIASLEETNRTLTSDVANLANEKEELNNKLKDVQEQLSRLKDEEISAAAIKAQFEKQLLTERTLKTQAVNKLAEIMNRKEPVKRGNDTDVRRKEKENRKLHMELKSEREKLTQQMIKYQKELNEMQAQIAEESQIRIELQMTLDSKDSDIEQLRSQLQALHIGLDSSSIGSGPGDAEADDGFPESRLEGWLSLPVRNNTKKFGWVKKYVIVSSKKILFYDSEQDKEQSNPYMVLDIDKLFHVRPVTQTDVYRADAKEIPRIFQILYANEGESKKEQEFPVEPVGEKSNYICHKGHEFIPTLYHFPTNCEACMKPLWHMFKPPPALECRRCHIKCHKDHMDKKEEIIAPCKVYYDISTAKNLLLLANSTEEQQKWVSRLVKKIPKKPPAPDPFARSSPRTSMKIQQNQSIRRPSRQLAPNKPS
For experiment [3], the species on record is Homo sapiens. Briefly: Selectivity ratio of IC50 for inhibition of ROCK2 (unknown origin) to IC50 for inhibition of ROCK1 (unknown origin).

Chain of Rho-associated protein kinase 1 (Q13464 whole entry): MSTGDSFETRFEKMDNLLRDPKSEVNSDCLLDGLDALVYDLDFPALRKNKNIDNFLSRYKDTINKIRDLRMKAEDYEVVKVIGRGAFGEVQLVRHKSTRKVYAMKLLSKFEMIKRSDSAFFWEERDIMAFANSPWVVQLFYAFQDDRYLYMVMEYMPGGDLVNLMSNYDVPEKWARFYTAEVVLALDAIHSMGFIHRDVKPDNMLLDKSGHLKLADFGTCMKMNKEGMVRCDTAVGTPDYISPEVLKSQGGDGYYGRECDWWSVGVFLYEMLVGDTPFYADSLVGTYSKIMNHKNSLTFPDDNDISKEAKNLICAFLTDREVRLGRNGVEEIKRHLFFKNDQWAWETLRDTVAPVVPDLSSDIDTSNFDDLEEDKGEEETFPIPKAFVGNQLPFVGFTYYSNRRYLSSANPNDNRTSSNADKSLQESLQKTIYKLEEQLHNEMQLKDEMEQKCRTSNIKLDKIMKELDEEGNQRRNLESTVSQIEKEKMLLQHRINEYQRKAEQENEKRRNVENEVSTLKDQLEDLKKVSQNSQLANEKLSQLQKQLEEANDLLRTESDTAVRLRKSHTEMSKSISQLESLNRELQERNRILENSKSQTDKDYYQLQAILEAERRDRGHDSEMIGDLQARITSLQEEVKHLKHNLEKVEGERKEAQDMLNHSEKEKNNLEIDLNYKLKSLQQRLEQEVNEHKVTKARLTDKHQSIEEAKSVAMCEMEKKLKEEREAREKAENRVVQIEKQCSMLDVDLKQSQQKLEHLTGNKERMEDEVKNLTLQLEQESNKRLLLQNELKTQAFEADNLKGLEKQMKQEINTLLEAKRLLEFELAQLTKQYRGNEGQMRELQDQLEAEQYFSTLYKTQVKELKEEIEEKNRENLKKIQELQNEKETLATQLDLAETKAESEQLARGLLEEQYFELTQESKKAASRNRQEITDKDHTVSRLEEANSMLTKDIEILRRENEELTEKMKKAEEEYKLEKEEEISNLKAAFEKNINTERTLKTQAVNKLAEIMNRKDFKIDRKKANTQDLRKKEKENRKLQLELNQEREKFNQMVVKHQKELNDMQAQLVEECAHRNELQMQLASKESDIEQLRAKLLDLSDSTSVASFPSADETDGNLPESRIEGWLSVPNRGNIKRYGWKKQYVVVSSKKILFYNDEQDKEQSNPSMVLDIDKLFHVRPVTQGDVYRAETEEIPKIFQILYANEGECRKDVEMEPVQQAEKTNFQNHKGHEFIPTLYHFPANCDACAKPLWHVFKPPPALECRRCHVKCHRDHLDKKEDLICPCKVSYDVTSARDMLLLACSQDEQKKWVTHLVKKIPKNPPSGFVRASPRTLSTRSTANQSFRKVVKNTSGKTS

For `O=C1C(Oc2cccc(OC(F)(F)F)c2)CCN1c1ccc(-c2n[nH]c(=O)c3ccccc23)cc1` (centres undefined), the values for the pIC50 in experiment [1] and in experiment [2] were 7.00 and 8.20, respectively.
On to `O=C(Nc1ccc(-c2n[nH]c(=O)c3ccccc23)cc1)N1CCc2ccccc21`, for which the Ratio IC50 in experiment [3] turned out to be 20. The same compound had a pIC50 in experiment [2] of 9.00.
Take `O=C1OC(c2ccccc2)CN1c1ccc(-c2n[nH]c(=O)c3ccccc23)cc1` (centres undefined): the pIC50 in experiment [1] was 6.64; in experiment [2], 7.22.
Taken in the same sequence, the figures for `O=C1N(c2ccccc2)CCN1c1ccc(-c2n[nH]c(=O)c3ccccc23)cc1` were 6.62 and 8.28.
For the compound `CS(=O)(=O)c1cccc(NC2CCN(c3ccc(-c4n[nH]c(=O)c5ccccc45)cc3)C2=O)c1` (centres undefined), the pIC50 in experiment [1] was 6.37; in experiment [2], 7.80.
In the case of `O=C1C(c2ccccc2)CCN1c1ccc(-c2n[nH]c(=O)c3ccccc23)cc1` (centres undefined), the pIC50 in experiment [1] is less than 5.70; in experiment [2], 6.46.
Taken in the same sequence, the figures for `O=C1N(c2ccc(-c3n[nH]c(=O)c4ccccc34)cc2)CCN1c1cccnc1` were 6.70 and 7.72.
Taken in the same sequence, the figures for `O=C1C(Nc2cccc(OC(F)F)c2)CCN1c1ccc(-c2n[nH]c(=O)c3ccccc23)cc1` (racemic) were 6.48 and 8.70.
On the same counts, the results for `O=C1C(NCc2ccccc2)CCN1c1ccc(-c2n[nH]c(=O)c3ccccc23)cc1` (centres undefined) are less than 5.70 and 5.85.
Take `O=C1C(NC2CCCC2)CCN1c1ccc(-c2n[nH]c(=O)c3ccccc23)cc1` (centres undefined): the pIC50 in experiment [1] is less than 5.70; in experiment [2] it was 5.75.
As to `O=C1C(Nc2cccc(OC(F)(F)F)c2)CCN1c1ccc(-c2n[nH]c(=O)c3ccccc23)cc1` (centres undefined), the pIC50 in experiment [1] is 6.57; in experiment [2], 8.25.
On the same counts, the results for `O=C(Cc1ccc(-c2n[nH]c(=O)c3ccccc23)cc1)N1CCc2ccccc21` are 6.47 and 8.15.
On the same counts, the results for `O=C1C(Nc2ccccc2)CCN1c1ccc(-c2n[nH]c(=O)c3ccccc23)cc1` (centres undefined) are 6.02 and 7.47.
Taken in the same sequence, the figures for `O=C1N(Cc2ccccc2)CCN1c1ccc(-c2n[nH]c(=O)c3ccccc23)cc1` were less than 5.70 and 7.25.
Consider `COc1cccc(NC2CCN(c3ccc(-c4n[nH]c(=O)c5ccccc45)cc3)C2=O)c1` (centres undefined), for which the pIC50 in experiment [1] was 5.98; in experiment [2], 7.64.
As to `O=C1C(c2ccc(-c3n[nH]c(=O)c4ccccc34)cc2)CCN1c1ccccc1` (centres undefined), the pIC50 in experiment [1] was less than 5.70; in experiment [2] it was 6.43.
Taken in the same sequence, the figures for `O=C1C(Nc2cccc(OC(F)F)c2)CCN1c1ccc(-c2n[nH]c(=O)c3ccccc23)cc1` (stereo in doubt; 21) were 6.00 and 7.82.
On the same counts, the results for `Cc1nc2ccc(NC3CCN(c4ccc(-c5n[nH]c(=O)c6ccccc56)cc4)C3=O)cc2s1` (centres undefined) are 6.94 and 8.13.
Taken in the same sequence, the figures for `CC(C)Oc1cccc(NC2CCN(c3ccc(-c4n[nH]c(=O)c5ccccc45)cc3)C2=O)c1` (centres undefined) were 6.42 and 7.74.
Take `O=C1CC(c2ccccc2)CN1c1ccc(-c2n[nH]c(=O)c3ccccc23)cc1` (centres undefined): the pIC50 in experiment [1] was 5.82; in experiment [2] it was 6.31.
Taken in the same sequence, the figures for `O=c1[nH]nc(-c2ccc(-n3ncn(Cc4ccccc4)c3=O)cc2)c2ccccc12` were less than 5.70 and 6.52.
For `O=C1C(Nc2cccc(OC(F)F)c2)CCN1c1ccc(-c2n[nH]c(=O)c3ccccc23)cc1` (stereo in doubt; 22), the values for the pIC50 in experiment [1] and in experiment [2] were 6.70 and 8.60, respectively.
